Experimental data published in patent publication US20240101540A1, “TARGETED PROTEIN DEGRADATION OF PARP14 FOR USE IN THERAPY” (Ribon Therapeutics, Inc., priority 2022, published 2024).
Counter-ions that a name gives are not always drawn.

These compounds were tested against T1, HiBiT tagged PARP14 (Homo sapiens, UniProt Q460N5) (assay: HiBiT assay for the degradation of PARP14 (HiBiT tagged PARP14 in LgBiT expressing Jurkat cells, 2 or 24 hours)). Settings: Assay B (Example B): HiBiT tagged PARP14 degradation in LgBiT expressing Jurkat cells, read-out: DC50.
T1 construct: engineered to contain a HiBiT tag on both alleles of the PARP14 gene; endogenous in cells; host or cells: Jurkat cells stably transfected with LgBiT (Promega), PARP14 locus edited by CRISPR/Cas9
Type: cell-based
Method in brief: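 Luminescence from HiBiT–LgBiT complementation served as proxy for endogenous PARP14 level in edited LgBiT Jurkat cells (5,000/well). After 2 or 24 h compound exposure at 37 °C, signal read with Live Cell Substrate, expressed as % of 0.1% DMSO control, and fitted (4-parameter, free Hill) for DC50.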

T1 sequence (Q460N5 whole entry): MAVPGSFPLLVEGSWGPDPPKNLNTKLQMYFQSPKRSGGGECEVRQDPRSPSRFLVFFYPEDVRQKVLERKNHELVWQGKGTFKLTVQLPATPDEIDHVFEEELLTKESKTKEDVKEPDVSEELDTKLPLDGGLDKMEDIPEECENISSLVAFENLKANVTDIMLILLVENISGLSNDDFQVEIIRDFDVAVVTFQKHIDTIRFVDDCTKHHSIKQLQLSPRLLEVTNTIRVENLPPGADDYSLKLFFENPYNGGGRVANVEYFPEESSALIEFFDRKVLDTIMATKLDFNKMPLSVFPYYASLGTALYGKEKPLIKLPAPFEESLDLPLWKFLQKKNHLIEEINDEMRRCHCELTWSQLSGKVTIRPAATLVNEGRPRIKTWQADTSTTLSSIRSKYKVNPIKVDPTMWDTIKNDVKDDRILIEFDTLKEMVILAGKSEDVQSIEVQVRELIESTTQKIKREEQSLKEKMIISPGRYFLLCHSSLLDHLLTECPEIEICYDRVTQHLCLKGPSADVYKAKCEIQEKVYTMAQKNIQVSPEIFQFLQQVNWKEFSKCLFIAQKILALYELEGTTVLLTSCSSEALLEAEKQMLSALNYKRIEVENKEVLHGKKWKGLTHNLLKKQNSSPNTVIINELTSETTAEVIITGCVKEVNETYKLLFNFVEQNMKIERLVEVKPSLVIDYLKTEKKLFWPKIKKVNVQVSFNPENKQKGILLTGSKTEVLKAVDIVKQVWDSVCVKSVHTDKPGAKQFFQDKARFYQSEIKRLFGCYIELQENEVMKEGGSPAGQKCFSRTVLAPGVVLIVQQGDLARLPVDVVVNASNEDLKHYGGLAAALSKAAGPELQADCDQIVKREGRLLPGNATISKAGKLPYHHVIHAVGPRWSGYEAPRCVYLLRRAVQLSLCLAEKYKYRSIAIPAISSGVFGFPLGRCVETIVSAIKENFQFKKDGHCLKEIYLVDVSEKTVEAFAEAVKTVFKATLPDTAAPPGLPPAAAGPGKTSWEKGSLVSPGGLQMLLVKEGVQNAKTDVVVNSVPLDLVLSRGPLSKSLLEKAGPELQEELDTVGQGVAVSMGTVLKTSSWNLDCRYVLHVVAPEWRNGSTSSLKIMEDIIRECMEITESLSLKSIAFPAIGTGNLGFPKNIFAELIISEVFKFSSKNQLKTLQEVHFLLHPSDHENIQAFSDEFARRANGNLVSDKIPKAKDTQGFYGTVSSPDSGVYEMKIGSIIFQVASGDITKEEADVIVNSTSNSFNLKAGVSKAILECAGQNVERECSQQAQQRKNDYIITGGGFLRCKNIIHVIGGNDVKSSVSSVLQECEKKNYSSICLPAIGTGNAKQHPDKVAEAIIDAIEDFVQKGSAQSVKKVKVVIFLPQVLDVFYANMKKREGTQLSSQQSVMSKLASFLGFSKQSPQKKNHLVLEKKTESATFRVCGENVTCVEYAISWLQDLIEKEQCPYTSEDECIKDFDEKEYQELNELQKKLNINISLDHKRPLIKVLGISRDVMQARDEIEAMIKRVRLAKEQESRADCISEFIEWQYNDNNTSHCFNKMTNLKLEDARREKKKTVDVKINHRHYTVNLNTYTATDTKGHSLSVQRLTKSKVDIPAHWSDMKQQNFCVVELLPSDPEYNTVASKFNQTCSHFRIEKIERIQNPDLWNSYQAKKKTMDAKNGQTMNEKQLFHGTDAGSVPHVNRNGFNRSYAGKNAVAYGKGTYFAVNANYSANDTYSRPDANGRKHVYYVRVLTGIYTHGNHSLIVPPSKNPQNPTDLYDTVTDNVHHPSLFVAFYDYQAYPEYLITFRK

DC50, < 30 nM:
O=C1CCC(Nc2ccc(N3CCC(CN4CC(N5CCC(COc6cc(F)c7c(=O)[nH]c(CSC8CCOCC8)nc7c6)CC5)C4)CC3)c(F)c2)C(=O)N1 (stereo not drawn) [Example 217, 3-((3-fluoro-4-(4-((3-(4-(((5-fluoro-4-oxo-2-(((tetrahydro-2H-pyran-4-yl)thio)methyl)-3,4-dihydroquinazolin-7-yl)oxy)methyl)piperidin-1-yl)azetidin-1-yl)methyl)piperidin-1-yl)phenyl)amino)piperidine-2,6-dione formate]
O=C1CCC(Nc2ccc(N3CCN(CCN4CCC(COc5cc(F)c6c(=O)[nH]c(CSC7CCOCC7)nc6c5)CC4)CC3)c(F)c2)C(=O)N1 (single isomer, unassigned) [Example 64a, 3-((3-fluoro-4-(4-(2-(4-(((5-fluoro-4-oxo-2-(((tetrahydro-2H-pyran-4-yl)thio)methyl)-3,4-dihydroquinazolin-7-yl)oxy)methyl)piperidin-1-yl)ethyl)piperazin-1-yl)phenyl)amino)piperidine-2,6-dione]
O=C1CCC(Nc2ccc(N3CCC(N4CC(N5CCC(COc6cc(F)c7c(=O)[nH]c(CSC8CCOCC8)nc7c6)CC5)C4)CC3)c(Cl)c2)C(=O)N1 (stereo not drawn) [Example 142]
Cn1nc(N2CCC(=O)NC2=O)c2cc(F)c(C3CCN(CCN4CCC(COc5cc(F)c6c(=O)[nH]c(COC7CCOCC7)nc6c5)CC4)CC3)cc21 [Example 198, 1-(5-fluoro-6-(1-(2-(4-(((5-fluoro-4-oxo-2-(((tetrahydro-2H-pyran-4-yl)oxy)methyl)-3,4-dihydroquinazolin-7-yl)oxy)methyl)piperidin-1-yl)ethyl)piperidin-4-yl)-1-methyl-1H-indazol-3-yl)dihydropyrimidine-2,4(1H,3H)-dione]
Cn1nc(N2CCC(=O)NC2=O)c2ccc(N3CCC(CN4CCC(COc5cc(F)c6c(=O)[nH]c(CSC7CCOCC7)nc6c5)CC4)CC3)cc21 [Example 181, 1-(6-(4-((4-(((5-fluoro-4-oxo-2-(((tetrahydro-2H-pyran-4-yl)thio)methyl)-3,4-dihydroquinazolin-7-yl)oxy)methyl)piperidin-1-yl)methyl)piperidin-1-yl)-1-methyl-1H-indazol-3-yl)dihydropyrimidine-2,4(1H,3H)-dione]
O=C1CCC(Nc2ccc(N3CCC(N4CC(CC(=O)N5CCC(COc6cc(F)c7c(=O)[nH]c(CSC8CCOCC8)nc7c6)CC5)C4)CC3)c(F)c2)C(=O)N1 (stereo not drawn) [Example 179, 3-((3-fluoro-4-(4-(3-(2-(4-(((5-fluoro-4-oxo-2-(((tetrahydro-2H-pyran-4-yl)thio)methyl)-3,4-dihydroquinazolin-7-yl)oxy)methyl)piperidin-1-yl)-2-oxoethyl)azetidin-1-yl)piperidin-1-yl)phenyl)amino)piperidine-2,6-dione]
O=C1CCC(Nc2ccc(F)c(N3CCN(CCN4CCC(COc5cc(F)c6c(=O)[nH]c(CSC7CCOCC7)nc6c5)CC4)CC3)c2)C(=O)N1 (stereo not drawn) [Example 104, 3-((4-fluoro-3-(4-(2-(4-(((5-fluoro-4-oxo-2-(((tetrahydro-2H-pyran-4-yl)thio)methyl)-3,4-dihydroquinazolin-7-yl)oxy)methyl)piperidin-1-yl)ethyl)piperazin-1-yl)phenyl)amino)piperidine-2,6-dione]
O=C1CCC(Nc2ccc3c(c2)CN(CCN2CCC(COc4cc(F)c5c(=O)[nH]c(CSC6CCOCC6)nc5c4)CC2)C3)C(=O)N1 (stereo not drawn) [Example 92, 3-((2-(2-(4-(((5-fluoro-4-oxo-2-(((tetrahydro-2H-pyran-4-yl)thio)methyl)-3,4-dihydroquinazolin-7-yl)oxy)methyl)piperidin-1-yl)ethyl)isoindolin-5-yl)amino)piperidine-2,6-dione]
O=C1CCC(Nc2ccc(N3CCC(C(=O)N4CCC(N5CCC(COc6cc(F)c7c(=O)[nH]c(CCC8CCOCC8)nc7c6)CC5)CC4)CC3)c(F)c2)C(=O)N1 (stereo not drawn) [Example 175, 3-((3-fluoro-4-(4-(4-(((5-fluoro-4-oxo-2-(2-(tetrahydro-2H-pyran-4-yl)ethyl)-3,4-dihydroquinazolin-7-yl)oxy)methyl)-[1,4′-bipiperidine]-1′-carbonyl)piperidin-1-yl)phenyl)amino)piperidine-2,6-dione]
Cn1nc(N2CCC(=O)NC2=O)c2ccc(N3CCC(N4CCC(COc5cc(F)c6c(=O)[nH]c(CSC7CCOCC7)nc6c5)CC4)CC3)cc21 [Example 155, 1-(6-(4-(((5-fluoro-4-oxo-2-(((tetrahydro-2H-pyran-4-yl)thio)methyl)-3,4-dihydroquinazolin-7-yl)oxy)methyl)-[1,4′-bipiperidin]-1′-yl)-1-methyl-1H-indazol-3-yl)dihydropyrimidine-2,4(1H,3H)-dione]
CN(C(=O)C1CCN(CCN2CCC(COc3cc(F)c4c(=O)[nH]c(COC5CCOCC5)nc4c3)CC2)CC1)c1ccc(NC2CCC(=O)NC2=O)cc1F (stereo not drawn) [Example 202, N-(4-((2,6-dioxopiperidin-3-yl)amino)-2-fluorophenyl)-1-(2-(4-(((5-fluoro-4-oxo-2-(((tetrahydro-2H-pyran-4-yl)oxy)methyl)-3,4-dihydroquinazolin-7-yl)oxy)methyl)piperidin-1-yl)ethyl)-N-methylpiperidine-4-carboxamide]
O=C1CCC(Nc2ccc(N3CCN(CCN4CCC(COc5cc(F)c6c(=O)[nH]c(CSC7CCOCC7)nc6c5)CC4)CC3)cc2F)C(=O)N1 (stereo not drawn) [Example 97, 3-((2-fluoro-4-(4-(2-(4-(((5-fluoro-4-oxo-2-(((tetrahydro-2H-pyran-4-yl)thio)methyl)-3,4-dihydroquinazolin-7-yl)oxy)methyl)piperidin-1-yl)ethyl)piperazin-1-yl)phenyl)amino)piperidine-2,6-dione]
O=C1CCC(Nc2ccc(N3CCC(C(=O)N4CCC(N5CCC(COc6cc(F)c7c(=O)[nH]c(CSC8CCOCC8)nc7c6)CC5)C4)CC3)c(F)c2)C(=O)N1 (stereo not drawn) [Example 176, 3-((3-fluoro-4-(4-(3-(4-(((5-fluoro-4-oxo-2-(((tetrahydro-2H-pyran-4-yl)thio)methyl)-3,4-dihydroquinazolin-7-yl)oxy)methyl)piperidin-1-yl)pyrrolidine-1-carbonyl)piperidin-1-yl)phenyl)amino)piperidine-2,6-dione]
Cn1nc(N2CCC(=O)NC2=O)c2ccc(N3CCC(N4CCC(COc5cc(F)c6c(=O)[nH]c(COC7CCOCC7)nc6c5)CC4)CC3)c(F)c21 [Example 159, 1-(7-fluoro-6-(4-(((5-fluoro-4-oxo-2-(((tetrahydro-2H-pyran-4-yl)oxy)methyl)-3,4-dihydroquinazolin-7-yl)oxy)methyl)-[1,4′-bipiperidin]-1′-yl)-1-methyl-1H-indazol-3-yl)dihydropyrimidine-2,4(1H,3H)-dione formate]
Cn1nc(N2CCC(=O)NC2=O)c2cc(F)c(C3CCN(CCN4CCC(COc5cc(F)c6c(=O)[nH]c(CSC7CCOCC7)nc6c5)CC4)CC3)cc21 [Example 207, 1-(5-fluoro-6-(1-(2-(4-(((5-fluoro-4-oxo-2-(((tetrahydro-2H-pyran-4-yl)thio)methyl)-3,4-dihydroquinazolin-7-yl)oxy)methyl)piperidin-1-yl)ethyl)piperidin-4-yl)-1-methyl-1H-indazol-3-yl)dihydropyrimidine-2,4(1H,3H)-dione formate]
